Source: ChEMBL document CHEMBL2331434, “Jatropholane-type diterpenes from Euphorbia sikkimensis” (J Nat Prod, 2013)

Columns and labels:
A549 = assay: Cytotoxicity against human A549 cells assessed as inhibition of cell viability after 48 hrs by MTT assay; type: functional, cell-based; settings: A549, 48 h
Danio rerio [1] = organism: Danio rerio; assay: Antiangiogenic activity against wild AB-type transgenic zebrafish embryo expressing green fluorescent protein-labeled VEGFR2 assessed as inhibition of growth of intersegmental vessels treated at 24 hrs post fertilization measured after 48 hrs by alkaline phosphatase staining; type: functional, organism-based
Danio rerio [2] = organism: Danio rerio; assay: Antiangiogenic activity against wild AB-type transgenic zebrafish embryo expressing green fluorescent protein-labeled VEGFR2 assessed as inhibition of growth of intersegmental vessels at 33.6 uM treated at 24 hrs post fertilization measured after 48 hrs by alkaline phosphatase staining; type: functional

`C=C1CC[C@H]2[C@@H]([C@@H]3[C@@H]1C1=C(C[C@H](C)C1=O)C(=O)[C@H]3C)C2(C)C` [SIKKIMENOID A] was tested, and the IC50 (A549) was > 10 µM.
In the case of `C=C1CC[C@H]2[C@@H]([C@@H]3[C@@H]1C1=C(C[C@@H](C)C1=O)C(=O)[C@H]3C)C2(C)C` [SIKKIMENOID B], the IC50 (Danio rerio [1]) is reported as 43 µM, the “growth inhibition (GI)” value (Danio rerio [1]) is reported as “Dose-dependent effect” and the “growth inhibition (GI)” value (Danio rerio [2]) is reported as 41.1%. The IC50 (A549) was > 10 µM.
In the case of `C=C1CC[C@H]2[C@@H]([C@@H]3[C@@H]1C1=C(C[C@](C)(O)C1=O)C(=O)[C@H]3C)C2(C)C` [SIKKIMENOID C], the IC50 (A549) is reported as > 10 µM.
For `C=C1CC[C@H]2[C@@H]([C@@H]3[C@@H]1C1=C(C[C@@](C)(O)C1=O)C(=O)[C@H]3C)C2(C)C` [SIKKIMENOID D], the IC50 (A549) was > 10 µM.
`Clc1ccc(Nc2nnc(Cc3ccncc3)c3ccccc23)cc1` [VATALANIB] was tested, and the IC50 (Danio rerio [1]) was 0.23 µM.
